The values below come from patent US20230293514A1, “INJECTABLE DEPOT FORMULATION COMPRISING CARIPRAZINE FREE BASE PARTICLES” (Anxo Pharmaceutical Co., Ltd., priority 2022, published 2023).

A short description of data set [1]: physchem. Conditions: water, thermodynamic from solid.
For data set [2] the following is noted: plasma vs pH 7.6 buffer simulating muscular tissue; cited from earlier work.

Molecules are shown by their SMILES. Converted amounts (≈) assume the structure as drawn. Structures can show the parent of a compound that is named as a salt. A value given as a limit tells only on which side of the number the result lay.

Usually solubility stands for the concentration that dissolves in the medium under given conditions. On to `CN(C)C(=O)N[C@H]1CC[C@H](CCN2CCN(c3cccc(Cl)c3Cl)CC2)CC1` [cariprazine free base, cariprazine], for which the concentration in solution in data set [1] (solubility) was 6 µg/mL (≈ 14 µM).

`CN(C)C(=O)NC1CCC(CCN2CCN(c3cccc(Cl)c3Cl)CC2)CC1` (stereo in doubt) [cariprazine hydrochloride salt, trans-N-{4-[2-[4-(2,3-dichlorophenyl)piperazine-1-yl]ethyl]cyclohexyl}-N′, N′-dimethylurea hydrochloride] had a solubility in data set [1] of over 5000 µg/mL.

Take `Cc1cc2c(s1)Nc1ccccc1N=C2N1CCN(C)CC1.O.O=C(O)c1cc2ccccc2c(Cc2c(O)c(C(=O)O)cc3ccccc23)c1O` [olanzapine pamoate]: the “solubilization enhancement in plasma compared to pH 7.6 buffer” value in data set [2] was 18 fold.
